Assay results: patent publication US12649751B2 (Arcus Biosciences, Inc., priority 2022, dated 2026)
Where two headings read alike, the source gives them in different places. Blank lines part the entries; values can stand above or below the compound they belong to.

Key:
[1] = biological target: HPK1 (Homo sapiens, UniProt Q92918); assay: HPK1 Biochemical Assay (ADP-Glo luminescence; low ATP 10 μM or high ATP 200 μM)
[2] = test system: p-SLP-76 (Ser376) in Jurkat cells; assay: pSLP76 Cellular Assay (AlphaLISA SureFire Ultra p-SLP-76 (Ser376), anti-CD3 activated Jurkat cells); type: cell-based; settings: Homo sapiens, read-out: Cellular Potency
Summary of the method: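 Read-out is AlphaLISA p-SLP-76 (Ser376) signal at 570 nm in Jurkat lysates, with IC50 fitted by 4-parameter logistic. Cells were starved overnight, exposed 1 h at 37 °C to 22 twofold compound dilutions in HBSS, then activated 45 min with anti-CD3 (0.025 mg/ml stock added).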

[3] = 2 nM HPK1, 10 μM ATP, read-out: Biochemical Potency (low ATP)
[4] = Jurkat cells, anti-CD3 stimulation, pSLP76
[5] = HPK1 ADP-Glo assay, high ATP (200 μM ATP, 5 nM HPK1), read-out: Biochemical Potency (high ATP)
[6] = pSLP76 (Ser376) AlphaLISA, anti-CD3 activated Jurkat cells
[7] = HPK1 ADP-Glo assay, low ATP (10 μM ATP, 2 nM HPK1), read-out: Biochemical Potency (low ATP)

Sequence of HPK1 (Q92918 whole entry, species assumed): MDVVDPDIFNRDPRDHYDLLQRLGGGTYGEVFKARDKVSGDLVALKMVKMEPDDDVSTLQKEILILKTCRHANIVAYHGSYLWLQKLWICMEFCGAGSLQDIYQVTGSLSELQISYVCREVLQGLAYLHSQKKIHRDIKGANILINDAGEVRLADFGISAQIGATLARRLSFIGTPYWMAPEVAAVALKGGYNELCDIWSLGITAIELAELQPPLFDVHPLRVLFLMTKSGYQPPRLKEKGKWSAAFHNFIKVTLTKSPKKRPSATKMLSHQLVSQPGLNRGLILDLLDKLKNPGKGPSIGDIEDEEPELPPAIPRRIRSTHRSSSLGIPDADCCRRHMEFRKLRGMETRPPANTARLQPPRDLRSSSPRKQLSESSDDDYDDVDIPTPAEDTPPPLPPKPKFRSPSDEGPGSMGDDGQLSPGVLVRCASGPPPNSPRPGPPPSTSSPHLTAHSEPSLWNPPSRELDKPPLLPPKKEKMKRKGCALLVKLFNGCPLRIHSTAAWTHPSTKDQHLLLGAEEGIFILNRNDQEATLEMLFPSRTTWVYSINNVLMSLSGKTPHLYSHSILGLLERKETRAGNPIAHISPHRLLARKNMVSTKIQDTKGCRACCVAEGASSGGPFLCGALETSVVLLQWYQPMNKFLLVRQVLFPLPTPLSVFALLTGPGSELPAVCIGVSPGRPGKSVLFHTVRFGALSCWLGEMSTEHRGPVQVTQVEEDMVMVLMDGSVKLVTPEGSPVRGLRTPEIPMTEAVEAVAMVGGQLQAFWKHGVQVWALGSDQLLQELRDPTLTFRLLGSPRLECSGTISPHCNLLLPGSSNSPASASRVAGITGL

IC50 [1, 3]: < 100 nM | IC50 [2, 4]: 1000 to 5000 nM
Compound: Cc1cccnc1-c1nc2cc(Nc3cccc(N4C[C@@H](N)C[C@H]4CO)n3)ncc2s1 [Example 66, [(2S,4S)-4-Amino-1-(6-{[2-(3-methylpyridin-2-yl)-[1,3]thiazolo[5,4-c]pyridin-6-yl]amino}pyridin-2-yl)pyrrolidin-2-yl]methanol]

IC50 [1, 5]: < 100 nM | IC50 [2, 6]: 100 to 1000 nM
Compound: CCN1C[C@@H]2C[C@H]1CN2c1nc(C)cc(Nc2cc3nc(-c4cncc(N5C[C@H]6COC[C@H]6C5)c4)sc3cn2)n1 [Example 472]

IC50 [1, 3]: < 100 nM | IC50 [2, 4]: 1000 to 5000 nM
Compound: CC(C)(N)c1nc(Nc2cc3nc(-c4c(F)cccc4F)sc3cn2)ccc1N1CCC(F)(F)C1 [Example 271, 6-(2-Aminopropan-2-yl)-N-[2-(2,6-difluorophenyl)-[1,3]thiazolo[5,4-c]pyridin-6-yl]-5-(3,3-difluoropyrrolidin-1-yl)pyridin-2-amine]

IC50 [1, 3]: < 100 nM | IC50 [2, 4]: < 100 nM
Compound: Cc1ccnn1-c1nc2cc(Nc3ccc(C4CCOC4)c(CN4CCCC4)n3)ncc2s1 (stereo not drawn) [Example 256, N-[2-(5-Methyl-1H-pyrazol-1-yl)-[1,3]thiazolo[5,4-c]pyridin-6-yl]-5-(oxolan-3-yl)-6-[(pyrrolidin-1-yl)methyl]pyridin-2-amine]

IC50 [1, 5]: < 100 nM | IC50 [2, 6]: 100 to 1000 nM
Compound: Cc1cc(Nc2cc3nc(-c4cccc(C(=O)N5CCOC[C@H]5C)c4)sc3cn2)nc(N2C[C@@H]3C[C@H]2CN3CCO)n1 [Example 547]

IC50 [1, 5]: < 100 nM | IC50 [2, 6]: 100 to 1000 nM
Compound: Cc1cc(Nc2cc3nc(-c4cccc(C(=O)N(C)C)c4)sc3cn2)nc(N2C[C@@H]3C[C@H]2CN3Cc2cnn(C)c2)n1 [Example 494]

IC50 [1, 5]: < 100 nM | IC50 [2, 6]: 100 to 1000 nM
Compound: CCN1C[C@@H]2C[C@H]1CN2c1nc(C)cc(Nc2cc3nc(-c4cccc(COC5CC5)c4)sc3cn2)n1 [Example 567]

IC50 [1, 3]: < 100 nM | IC50 [2, 4]: 1000 to 5000 nM
Compound: Cc1ccc(Nc2cc3nc(-c4ccnnc4)sc3cn2)nc1CN1CCCC1 [Example 57, 5-Methyl-N-[2-(pyridazin-4-yl)-[1,3]thiazolo[5,4-c]pyridin-6-yl]-6-[(pyrrolidin-1-yl)methyl]pyridin-2-amine]

IC50 [1, 5]: < 100 nM | IC50 [1, 7]: < 100 nM | IC50 [2, 6]: < 100 nM
Compound: Cc1cc(Nc2cc3nc(-c4ncccc4C)sc3cn2)nc(N2C[C@@H]3C[C@H]2CN3)n1 [Example 407]

IC50 [1, 5]: < 100 nM | IC50 [2, 6]: 100 to 1000 nM
Compound: CCN1C[C@@H]2C[C@H]1CN2c1nc(C)cc(Nc2cc3nc(-c4cncc(N5CCOC[C@H]5C)c4)sc3cn2)n1 [Example 297, 2-[(1S,4S)-5-ethyl-2,5-diazabicyclo[2.2.1]heptan-2-yl]-6-methyl-N-(2-{5-[(3R)-3-methylmorpholin-4-yl]pyridin-3-yl}-[1,3]thiazolo[5,4-c]pyridin-6-yl)pyrimidin-4-amine]

IC50 [1, 5]: < 100 nM | IC50 [2, 6]: 100 to 1000 nM
Compound: CC(=O)N(C)CCN1C[C@@H]2C[C@H]1CN2c1nc(C)cc(Nc2cc3nc(-c4cccc(C(=O)N(C)C)c4)sc3cn2)n1 [Example 495]

IC50 [1, 5]: < 100 nM | IC50 [2, 6]: < 100 nM
Compound: Cc1cc(Nc2cc3nc(-c4cnn(C)c4)sc3cn2)nc(N2C[C@@H]3C[C@H]2CN3CCO)n1 [Example 301, 2-[(1S,4S)-5-(4-Methyl-6-{[2-(1-methyl-1H-pyrazol-4-yl)-[1,3]thiazolo[5,4-c]pyridin-6-yl]amino}pyrimidin-2-yl)-2,5-diazabicyclo[2.2.1]heptan-2-yl]ethan-1-ol]

IC50 [1, 5]: < 100 nM | IC50 [2, 6]: 100 to 1000 nM
Compound: OCCN1C[C@@H]2C[C@H]1CN2c1nc(Nc2cc3nc(-c4cnn(CC5CC5)c4)sc3cn2)ccc1F [Example 424]

IC50 [1, 3]: < 100 nM | IC50 [2, 4]: 100 to 1000 nM
Compound: Cc1cccnc1-c1nc2cc(Nc3ccnc(N4C[C@@H](N)C[C@H]4CO)n3)ncc2s1 [Example 155, [(2S,4S)-4-Mmino-1-(4-{[2-(3-methylpyridin-2-yl)-[1,3]thiazolo[5,4-c]pyridin-6-yl]amino}pyrimidin-2-yl)pyrrolidin-2-yl]methanol]

IC50 [1, 5]: < 100 nM | IC50 [2, 6]: 100 to 1000 nM
Compound: CN1C[C@@H]2C[C@H]1CN2c1nccc(Nc2cc3nc(-c4cccc(S(=O)(=O)C5CC5)c4)sc3cn2)n1 [Example 405]

More lines, now with the values behind:

Compound: Cc1ccc(Nc2cc3nc(-n4nccc4C)sc3cn2)nc1CN[C@H]1CCOC1 [Example 198, 5-Methyl-N-[2-(5-methyl-1H-pyrazol-1-yl)-[1,3]thiazolo[5,4-c]pyridin-6-yl]-6-({[(3S)-oxolan-3-yl]amino}methyl)pyridin-2-amine]
IC50 [1, 3]: < 100 nM | IC50 [2, 4]: > 5000 nM

Compound: CNS(=O)(=O)c1cccc(-c2nc3cc(Nc4cncc(N5C[C@@H]6C[C@H]5CN6C)n4)ncc3s2)c1 [Example 290, N-methyl-3-[6-({6-[(1S,4S)-5-methyl-2,5-diazabicyclo[2.2.1]heptan-2-yl]pyrazin-2-yl}amino)-[1,3]thiazolo[5,4-c]pyridin-2-yl]benzene-1-sulfonamide]
IC50 [1, 3]: < 100 nM | IC50 [2, 4]: 100 to 1000 nM

Compound: Cc1cc(-c2nc3cc(Nc4ccc(C5CCOCC5)c(N5C[C@@H]6CCN(C)[C@@H]6C5)n4)ncc3s2)ccn1 [Example 248, 6-[(3aS,6aS)-1-Methyl-octahydropyrrolo[3,4-b]pyrrol-5-yl]-N-[2-(2-methylpyridin-4-yl)-[1,3]thiazolo[5,4-c]pyridin-6-yl]-5-(oxan-4-yl)pyridin-2-amine]
IC50 [1, 3]: < 100 nM | IC50 ([1]; 5 nM HPK1, 200 μM ATP, read-out: Biochemical Potency (high ATP)): < 100 nM | IC50 [2, 4]: < 100 nM

Compound: Cc1cc(Nc2cc3nc(-c4cnn(CC5CC5)c4)sc3cn2)nc(N2C[C@@H]3C[C@H]2CN3CC(C)(C)O)n1 [Example 503]
IC50 [1, 5]: < 100 nM | IC50 [2, 6]: 100 to 1000 nM

Compound: CN1C[C@@H]2C[C@H]1CN2c1nc(Nc2cc3nc(-c4cncc(C(C)(C)O)c4)sc3cn2)cc(C2CCOCC2)n1 [Example 438]
IC50 [1, 7]: < 100 nM | IC50 [2, 6]: 100 to 1000 nM

Compound: CN1C[C@@H]2C[C@H]1CN2c1cncc(Nc2cc3nc(-c4cccc(S(=O)(=O)N(C)C)c4)sc3cn2)n1 [Example 288, N,N-dimethyl-3-[6-({6-[(1S,4S)-5-methyl-2,5-diazabicyclo[2.2.1]heptan-2-yl]pyrazin-2-yl}amino)-[1,3]thiazolo[5,4-c]pyridin-2-yl]benzene-1-sulfonamide]
IC50 [1, 3]: 100 to 1000 nM | IC50 [2, 4]: 1000 to 5000 nM

Compound: Cc1cc(Nc2cc3nc(-c4cccc(OC(F)F)c4)sc3cn2)nc(N2C[C@@H]3C[C@H]2CN3C)n1 [Example 390]
IC50 [1, 5]: < 100 nM | IC50 [2, 6]: 100 to 1000 nM

Compound: CCN1C[C@@H]2C[C@H]1CN2c1nc(C)cc(Nc2cc3nc(-c4cccc(C(=O)N5CCC[C@@H]5C)c4)sc3cn2)n1 [Example 526]
IC50 [1, 5]: < 100 nM | IC50 [2, 6]: < 100 nM

Compound: Cc1cc(Nc2cc3nc(-c4ccnc(N5C[C@@H](C)O[C@@H](C)C5)c4)sc3cn2)nc(N2C[C@@H]3C[C@H]2CN3CCO)n1 [Example 445]
IC50 [1, 5]: < 100 nM | IC50 [2, 6]: 100 to 1000 nM

Compound: Cc1cccnc1-c1nc2cc(Nc3ccc4c(n3)[C@H](N)CCC4)ncc2s1 [Example 317, (8R)-N2-[2-(3-methylpyridin-2-yl)-[1,3]thiazolo[5,4-c]pyridin-6-yl]-5,6,7,8-tetrahydroquinoline-2,8-diamine]
IC50 [1, 7]: < 100 nM | IC50 [2, 6]: 1000 to 5000 nM

Compound: CCN1C[C@@H]2C[C@H]1CN2c1nc(C)cc(Nc2cc3nc(-c4cccc(C(=O)NC5CCOCC5)c4)sc3cn2)n1 [Example 532]
IC50 [1, 5]: < 100 nM | IC50 [2, 6]: 100 to 1000 nM
